Data taken from publication PMC3956608 (PLoS ONE, 2014).

Legend:
[1] = biological target: T1, acetylcholine binding protein (Ls-AChBP) (Lymnaea stagnalis, UniProt P58154); assay: biochemical
[2] = biological target: T1, acetylcholine binding protein (Ls-AChBP); assay: radioligand binding, HEK-293 cell homogenate; parameters: Ls-AChBP linked to a 5HT3 receptor ion channel (Ls-AChBP-5HT3 receptor chimera); conditions: cited from earlier work

T1 sequence (P58154 20-229): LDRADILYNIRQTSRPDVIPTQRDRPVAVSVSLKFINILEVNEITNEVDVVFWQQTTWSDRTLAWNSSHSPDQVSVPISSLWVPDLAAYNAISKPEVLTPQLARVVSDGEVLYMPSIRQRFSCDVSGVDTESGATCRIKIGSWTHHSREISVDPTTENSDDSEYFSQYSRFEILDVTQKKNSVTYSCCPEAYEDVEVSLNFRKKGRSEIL

Structure (SMILES)	Ki [1]	Kd [2]
CC(=O)OCC[N+](C)(C)C [acetylcholine]	1500 nM	
Clc1ccc(C2CC3CCC2N3)cn1 (centres unmarked) [[3H]-epibatidine]		0.097 nM
